A word on the inhibition: it is the change of the read-out against control, counted positive when it falls.

One assay deals with Gaeumannomyces graminis var. tritici (Ggt). The experiment in a line: In vitro Assay: mycelial growth of Ggt on minimal media agar plates containing test compound. The format is cell-based. The conditions noted are these: Gaeumannomyces graminis; 0.1 ppm in minimal media agar; dark, 19-20° C., 4 to 5 days; diameter of mycelial growth; read-out: In vitro (ppm) 0.1, Percent Inhibition. Put shortly:
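Compounds added from acetone stock into minimal (Czapek Dox) agar; plates inoculated with three 4-mm Ggt plugs, incubated in dark at 19-20° C for 4 to 5 days. Colony diameter measured; Percent Inhibition = [1-((treated mm −4)/(control mm −4))]×100.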
Take `C=CCNC(=O)c1c(Cl)cccc1[Si](C)(C)C` [Example 106, 2-Chloro-N-2-propenyl-6-(trimethylsilyl)benzamide]: the inhibition at 0.1 ppm came to 95%.
Still for that read-out and setting: next, `CC(C)(C)OC(=O)Nc1c(Cl)cccc1[Si](C)(C)C` [Example 111, [2-Chloro-6-(trimethylsilyl)phenyl]carbamic acid, 1,1-dimethylethyl ester]: 14%.
For `CC1CN(C(=O)c2c(Cl)cccc2[Si](C)(C)C)CC(C)O1` (stereo not shown) [Example 130, N-[2-Chloro-6-(trimethylsilyl)benzoyl]-2,6-dimethylmorpholine], the inhibition at 0.1 ppm was determined as 16%.
Turning to `C[Si](C)(C)c1cccc(Cl)c1C(=O)N1CCOCC1` [Example 132, N-[2-Chloro-6-(trimethylsilyl)benzoyl]-morpholine], the inhibition at 0.1 ppm was 54%.
Same read-out and setting: next, `CN1CCN(C(=O)c2c(Cl)cccc2[Si](C)(C)C)CC1` [Example 133, N-[2-Chloro-6-(trimethylsilyl)benzoyl]-4-methylpiperazine]: 13%.
Regarding `C[Si](C)(C)c1cccc(Cl)c1C(=O)N1CCCCC1` [Example 134, N-[2-Chloro-6-(trimethylsilyl)benzoyl]-piperidine], the inhibition at 0.1 ppm was < 0%.
`C[Si](C)(C)c1cccc(Cl)c1C(=O)NCC1CC1` [Example 150, 2-Chloro-N-(cyclopropylmethyl)-6-(trimethylsilyl)benzamide]: the inhibition at 0.1 ppm was 34%.
On to `CC[C@@H](C)NC(=O)c1c(Cl)cccc1[Si](C)(C)C` [Example 151, 2-Chloro-N-(1-methylpropyl)-6-(trimethylsilyl)benzamide, (r)-], for which the inhibition at 0.1 ppm was < 0%.
Still for that read-out and setting: to `CC[C@H](C)NC(=O)c1c(Cl)cccc1[Si](C)(C)C` [Example 152, 2-Chloro-N-(1-methylpropyl)-6-(trimethylsilyl)benzamide, (s)-] belongs < 0%; to `C[Si](C)(C)c1cccc(Cl)c1C(=O)NCCBr` [Example 153, N-(2-Bromoethyl)-2-chloro-6-(trimethylsilyl)benzamide], < 0%; to `C[Si](C)(C)c1cccc(Cl)c1C(=O)NCCF` [Example 155, 2-Chloro-N-(2-fluoroethyl)-6-(trimethylsilyl)benzamide], < 0%.
As for `CCOc1ccccc1NC(=O)c1c(Cl)cccc1[Si](C)(C)C` [Example 157, 2-Chloro-N-(2-ethoxyphenyl)-6-(trimethylsilyl)benzamide], the inhibition at 0.1 ppm came to 7%.
In the case of `COc1ccccc1NC(=O)c1c(Cl)cccc1[Si](C)(C)C` [Example 159, 2-Chloro-N-(2-methoxyphenyl)-6-(trimethylsilyl)benzamide], the inhibition at 0.1 ppm was determined as 12%.

The assay is the same for the next values; noted with them: Gaeumannomyces graminis; 1 ppm in minimal media agar; dark, 19-20° C., 4 to 5 days; diameter of mycelial growth; read-out: In vitro (ppm) 1, Percent Inhibition.
Take `C=CCNC(=O)c1c(Cl)cccc1[Si](C)(C)C` [Example 106, 2-Chloro-N-2-propenyl-6-(trimethylsilyl)benzamide]: the inhibition at 1 ppm was 95%.
Regarding `CC(C)(C)OC(=O)Nc1c(Cl)cccc1[Si](C)(C)C` [Example 111, [2-Chloro-6-(trimethylsilyl)phenyl]carbamic acid, 1,1-dimethylethyl ester], the inhibition at 1 ppm came out at 66%.
For `CC1CN(C(=O)c2c(Cl)cccc2[Si](C)(C)C)CC(C)O1` (stereo not shown) [Example 130, N-[2-Chloro-6-(trimethylsilyl)benzoyl]-2,6-dimethylmorpholine], the inhibition at 1 ppm turned out to be 13%.
On to `C[Si](C)(C)c1cccc(Cl)c1C(=O)N1CCOCC1` [Example 132, N-[2-Chloro-6-(trimethylsilyl)benzoyl]-morpholine], for which the inhibition at 1 ppm is 15%.
Consider `CN1CCN(C(=O)c2c(Cl)cccc2[Si](C)(C)C)CC1` [Example 133, N-[2-Chloro-6-(trimethylsilyl)benzoyl]-4-methylpiperazine], for which the inhibition at 1 ppm was found to be 3%.
The same measure, in the same setting: to `C[Si](C)(C)c1cccc(Cl)c1C(=O)N1CCCCC1` [Example 134, N-[2-Chloro-6-(trimethylsilyl)benzoyl]-piperidine] belongs 3%; to `C[Si](C)(C)c1cccc(Cl)c1C(=O)NCC1CC1` [Example 150, 2-Chloro-N-(cyclopropylmethyl)-6-(trimethylsilyl)benzamide], 74%.
Still for that read-out and setting: to `CC[C@@H](C)NC(=O)c1c(Cl)cccc1[Si](C)(C)C` [Example 151, 2-Chloro-N-(1-methylpropyl)-6-(trimethylsilyl)benzamide, (r)-] belongs 71%; to `CC[C@H](C)NC(=O)c1c(Cl)cccc1[Si](C)(C)C` [Example 152, 2-Chloro-N-(1-methylpropyl)-6-(trimethylsilyl)benzamide, (s)-], 71%; to `C[Si](C)(C)c1cccc(Cl)c1C(=O)NCCBr` [Example 153, N-(2-Bromoethyl)-2-chloro-6-(trimethylsilyl)benzamide], 88%.
`C[Si](C)(C)c1cccc(Cl)c1C(=O)NCCF` [Example 155, 2-Chloro-N-(2-fluoroethyl)-6-(trimethylsilyl)benzamide]: the inhibition at 1 ppm amounted to 64%.
In the case of `CCOc1ccccc1NC(=O)c1c(Cl)cccc1[Si](C)(C)C` [Example 157, 2-Chloro-N-(2-ethoxyphenyl)-6-(trimethylsilyl)benzamide], the inhibition at 1 ppm is 23%.
`COc1ccccc1NC(=O)c1c(Cl)cccc1[Si](C)(C)C` [Example 159, 2-Chloro-N-(2-methoxyphenyl)-6-(trimethylsilyl)benzamide]: the inhibition at 1 ppm was 55%.

Staying with this assay, now noted: Gaeumannomyces graminis; 10 ppm in minimal media agar; dark, 19-20° C., 4 to 5 days; diameter of mycelial growth; read-out: In vitro (ppm) 10, Percent Inhibition.
Take `C=CCNC(=O)c1c(Cl)cccc1[Si](C)(C)C` [Example 106, 2-Chloro-N-2-propenyl-6-(trimethylsilyl)benzamide]: the inhibition at 10 ppm turned out to be 97%.
Same read-out and setting: next, `CC(C)(C)OC(=O)Nc1c(Cl)cccc1[Si](C)(C)C` [Example 111, [2-Chloro-6-(trimethylsilyl)phenyl]carbamic acid, 1,1-dimethylethyl ester]: 100%; `CC1CN(C(=O)c2c(Cl)cccc2[Si](C)(C)C)CC(C)O1` (stereo not shown) [Example 130, N-[2-Chloro-6-(trimethylsilyl)benzoyl]-2,6-dimethylmorpholine]: 39%; `C[Si](C)(C)c1cccc(Cl)c1C(=O)N1CCOCC1` [Example 132, N-[2-Chloro-6-(trimethylsilyl)benzoyl]-morpholine]: 46%.
`CN1CCN(C(=O)c2c(Cl)cccc2[Si](C)(C)C)CC1` [Example 133, N-[2-Chloro-6-(trimethylsilyl)benzoyl]-4-methylpiperazine]: the inhibition at 10 ppm worked out at 18%.
Same read-out and setting: to `C[Si](C)(C)c1cccc(Cl)c1C(=O)N1CCCCC1` [Example 134, N-[2-Chloro-6-(trimethylsilyl)benzoyl]-piperidine] belongs 39%.
With `C[Si](C)(C)c1cccc(Cl)c1C(=O)NCC1CC1` [Example 150, 2-Chloro-N-(cyclopropylmethyl)-6-(trimethylsilyl)benzamide], the inhibition at 10 ppm was 83%.
As to `CC[C@@H](C)NC(=O)c1c(Cl)cccc1[Si](C)(C)C` [Example 151, 2-Chloro-N-(1-methylpropyl)-6-(trimethylsilyl)benzamide, (r)-], the inhibition at 10 ppm was found to be 57%.
Same read-out and setting: to `CC[C@H](C)NC(=O)c1c(Cl)cccc1[Si](C)(C)C` [Example 152, 2-Chloro-N-(1-methylpropyl)-6-(trimethylsilyl)benzamide, (s)-] belongs 86%; to `C[Si](C)(C)c1cccc(Cl)c1C(=O)NCCBr` [Example 153, N-(2-Bromoethyl)-2-chloro-6-(trimethylsilyl)benzamide], 91%.
For `C[Si](C)(C)c1cccc(Cl)c1C(=O)NCCF` [Example 155, 2-Chloro-N-(2-fluoroethyl)-6-(trimethylsilyl)benzamide], the inhibition at 10 ppm was found to be 90%.
In the case of `CCOc1ccccc1NC(=O)c1c(Cl)cccc1[Si](C)(C)C` [Example 157, 2-Chloro-N-(2-ethoxyphenyl)-6-(trimethylsilyl)benzamide], the inhibition at 10 ppm was 91%.
With `COc1ccccc1NC(=O)c1c(Cl)cccc1[Si](C)(C)C` [Example 159, 2-Chloro-N-(2-methoxyphenyl)-6-(trimethylsilyl)benzamide], the inhibition at 10 ppm was found to be 100%.

Another assay deals with Ggt. The experiment in a line: In vivo Assay: control of Ggt on wheat grown in pots of Ggt-infested soil, root disease rating. The conditions noted are these: Gaeumannomyces graminis, 672 h; 0.5 mg active ingredient per pot; 'Bergen' or 'Anza' wheat in Ggt-infested soil; after four weeks; vs untreated control; read-out: In vivo, percent disease control. Further details: species or system Gaeumannomyces graminis var. tritici. Put shortly: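 Wheat ('Bergen' or 'Anza') seeds in soil infested with Ggt-colonised oats (4% v/v) treated at 0.5 mg active ingredient per pot in acetone/water with Tween 20; five pots per treatment. After four weeks, seminal roots rated 0–5; trimmed mean of three replicates converted to percent disease control versus untreated.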
`C=CCNC(=O)c1c(Cl)cccc1[Si](C)(C)C` [Example 106, 2-Chloro-N-2-propenyl-6-(trimethylsilyl)benzamide]: the pest or weed control at 0.5 mg/pot is 100%.
`CC1CN(C(=O)c2c(Cl)cccc2[Si](C)(C)C)CC(C)O1` (stereo not shown) [Example 130, N-[2-Chloro-6-(trimethylsilyl)benzoyl]-2,6-dimethylmorpholine]: the pest or weed control at 0.5 mg/pot was determined as 1%.
With `C[Si](C)(C)c1cccc(Cl)c1C(=O)N1CCOCC1` [Example 132, N-[2-Chloro-6-(trimethylsilyl)benzoyl]-morpholine], the pest or weed control at 0.5 mg/pot was < 0%.
Still for that read-out and setting: next, `CN1CCN(C(=O)c2c(Cl)cccc2[Si](C)(C)C)CC1` [Example 133, N-[2-Chloro-6-(trimethylsilyl)benzoyl]-4-methylpiperazine]: < 0%.
`C[Si](C)(C)c1cccc(Cl)c1C(=O)N1CCCCC1` [Example 134, N-[2-Chloro-6-(trimethylsilyl)benzoyl]-piperidine]: the pest or weed control at 0.5 mg/pot was < 0%.
Same read-out and setting: next, `C[Si](C)(C)c1cccc(Cl)c1C(=O)NCC1CC1` [Example 150, 2-Chloro-N-(cyclopropylmethyl)-6-(trimethylsilyl)benzamide]: 96%; `CC[C@@H](C)NC(=O)c1c(Cl)cccc1[Si](C)(C)C` [Example 151, 2-Chloro-N-(1-methylpropyl)-6-(trimethylsilyl)benzamide, (r)-]: 97%; `CC[C@H](C)NC(=O)c1c(Cl)cccc1[Si](C)(C)C` [Example 152, 2-Chloro-N-(1-methylpropyl)-6-(trimethylsilyl)benzamide, (s)-]: 54%.
Regarding `C[Si](C)(C)c1cccc(Cl)c1C(=O)NCCBr` [Example 153, N-(2-Bromoethyl)-2-chloro-6-(trimethylsilyl)benzamide], the pest or weed control at 0.5 mg/pot amounted to 29%.
On to `C[Si](C)(C)c1cccc(Cl)c1C(=O)NCCF` [Example 155, 2-Chloro-N-(2-fluoroethyl)-6-(trimethylsilyl)benzamide], for which the pest or weed control at 0.5 mg/pot is 93%.
In the case of `CCOc1ccccc1NC(=O)c1c(Cl)cccc1[Si](C)(C)C` [Example 157, 2-Chloro-N-(2-ethoxyphenyl)-6-(trimethylsilyl)benzamide], the pest or weed control at 0.5 mg/pot stood at 0%.
On the same count and under the same terms, next, `COc1ccccc1NC(=O)c1c(Cl)cccc1[Si](C)(C)C` [Example 159, 2-Chloro-N-(2-methoxyphenyl)-6-(trimethylsilyl)benzamide]: 0%.

The same assay, now with this note: Gaeumannomyces graminis, soil, 672 h, read-out: In vivo, percent disease control.
With `CC(C)(C)OC(=O)Nc1c(Cl)cccc1[Si](C)(C)C` [Example 111, [2-Chloro-6-(trimethylsilyl)phenyl]carbamic acid, 1,1-dimethylethyl ester], the pest or weed control at 0.5 mg/pot was found to be 48%.

The record behind these values is patent US6410558B1, “Fungicides for the control of take-all disease of plants” (Monsanto Technology LLC, priority 1991, dated 2002).
